Measurements from US20210278408A1, “METHODS OF TREATMENT OF CANCER WITH SUBSTITUTED PYRROLE AND PYRAZOLE COMPOUNDS AND DIAGNOSIS OF CANCERS SUSCEPTIBLE TO TREATMENT WITH SUBSTITUTED PYRROLE AND PYRAZOLE COMPOUNDS” (Bantam Pharmaceutical, LLC, priority 2018, published 2021).
Read-outs that look alike come from different tables or passages of the source.

Test system: BJAB (malignant human B-cell-line)
Test: BJAB cell proliferation
Format: cell-based
Design: scale not given here
Excerpt: In certain embodiments, the therapeutic compound is one of the compounds of the compound table below. […] In certain embodiments, the therapeutic compound is a compound having an activity as “A,” “B” or “C” in the table below. In certain embodiments, the therapeutic compound is a compound having an activity as “A” or “B” in the table below. In certain embodiments, the therapeutic compound is a compound having an activity as “A” in the table below.
In certain embodiments, the therapeutic compound is one of the compounds of the compound table below, optionally provided as a pharmaceutically-acceptable salt or N-oxide, and/or a solvate or hydrate. […] In certain embodiments, the therapeutic compound is a compound having an activity as “A,” “B” or “C” in the table below. In certain embodiments, the therapeutic compound is a compound having an activity as “A” or “B” in the table below. In certain embodiments, the therapeutic compound is a compound having an activity as “A” in the table below.

[1] = BJAB cell proliferation, read-out: EC50
[2] = Homo sapiens, BJAB cell proliferation, read-out: EC50
[3] = BJAB (malignant human B-cell-line) cell proliferation, EC50, read-out: BJAB

| SMILES | EC50 [3] [µM] | further results |
| --- | --- | --- |
| Cc1nn(-c2nc(-c3ccc(Cl)c(Cl)c3)c(SC(C)C)s2)c(CO)c1-c1ccccc1 [Compound A88, (1-(4-(3,4-dichlorophenyl)-5-(isopropylthio)thiazol-2-yl)-3-methyl-4-phenyl-1H-pyrazol-5-yl)MeOH] | – | EC50 [1]: > 25 µM |
| Cc1nn(-c2nc(-c3ccc(Cl)c(Cl)c3)c(SC(C)C)s2)c(C(=O)O)c1Cc1ccccc1NS(=O)(=O)N(C)C [Compound A122, 1-(4-(3,4-dichlorophenyl)-5-(isopropylthio)thiazol-2-yl)-4-(2-(N,N-dimethylsulfamoylamino)benzyl)-3-methyl-1H-pyrazole-5-carboxylic acid] | – | EC50 [1]: 10 to 25 µM |
| Cc1nn(-c2nc(-c3ccc(Cl)c(Cl)c3)c(SC(C)C)s2)c(C(=O)O)c1-c1cccc(F)c1 [Compound A151, 1-(4-(3,4-dichlorophenyl)-5-(isopropylthio)thiazol-2-yl)-4-(3-fluorophenyl)-3-methyl-1H-pyrazole-5-carboxylic acid] | – | EC50 (BJAB cell proliferation): A, B |
| Cc1nn(-c2nc(-c3ccc(C#N)cc3)c(SC(C)C)s2)c(C(=O)O)c1-c1cccc(F)c1 [Compound A213, 1-(4-(4-cyanophenyl)-5-(isopropylthio)thiazol-2-yl)-4-(3-fluorophenyl)-3-methyl-1H-pyrazole-5-carboxylic acid] | – | EC50 (BJAB cell proliferation): C- |
| COc1cc(Cl)cc(-c2c(C)nn(-c3nc(-c4ccc(C(F)(F)F)cc4)c(SC(C)C)s3)c2C(=O)O)c1 [Compound A222, 4-(3-chloro-5-methoxyphenyl)-1-(5-(isopropylthio)-4-(4-(trifluoromethyl)phenyl)thiazol-2-yl)-3-methyl-1H-pyrazole-5-carboxylic acid] | – | EC50 [2]: < 1 µM |
| Cc1nn(-c2nc(-c3ccc(OC(F)(F)F)cc3)c(SC(C)C)s2)c(C(=O)O)c1-c1cccc(F)c1 [Compound A223, 4-(3-fluorophenyl)-1-(5-(isopropylthio)-4-(4-(trifluoromethoxy)phenyl)thiazol-2-yl)-3-methyl-1H-pyrazole-5-carboxylic acid] | – | EC50 [2]: 1 to 5 µM |
| Cc1cc(C(=O)O)n(-c2nc(-c3ccc(Cl)cc3OC3COC3)c(SC(C)C)s2)n1 [Compound B1, 1-(4-(4-chloro-2-(oxetan-3-yloxy)phenyl)-5-(isopropylthio)thiazol-2-yl)-3-methyl-1H-pyrazole-5-carboxylic acid] | > 40 | – |
| Cc1cc(C(=O)O)n(-c2nc(-c3ccc(Cl)c(OC4COC4)c3)c(SC(C)C)s2)n1 [Compound B2, 1-(4-(4-chloro-3-(oxetan-3-yloxy)phenyl)-5-(isopropylthio)thiazol-2-yl)-3-methyl-1H-pyrazole-5-carboxylic acid] | > 40 | – |
| Cc1nnc(-c2ccc(-c3nc(-n4nc(C)c(-c5cccc(F)c5)c4C(=O)O)sc3SC(C)C)cc2)o1 [Compound B3, 4-(3-fluorophenyl)-1-(5-(isopropylthio)-4-(4-(5-methyl-1,3,4-oxadiazol-2-yl)phenyl)thiazol-2-yl)-3-methyl-1H-pyrazole-5-carboxylic acid] | 25 to 50 | – |
| Cc1nn(-c2nc(C3=CCC(C)CC3)c(SC(C)C)s2)c(C(=O)O)c1-c1cccc(F)c1 (centres unmarked) [Compound B4, 4-(3-fluorophenyl)-1-(5-(isopropylthio)-4-(4-methylcyclohex-1-en-1-yl)thiazol-2-yl)-3-methyl-1H-pyrazole-5-carboxylic acid] | 1 to 5 | – |
| Cc1nn(-c2nc(C3=CCC(C)(C)CC3)c(SC(C)C)s2)c(C(=O)O)c1-c1cccc(F)c1 [Compound B6, 1-(4-(4,4-dimethylcyclohex-1-en-1-yl)-5-(isopropylthio)thiazol-2-yl)-4-(3-fluorophenyl)-3-methyl-1H-pyrazole-5-carboxylic acid] | < 1 | – |
| Cc1nn(-c2nc(C3=CCC4(CC3)OCCO4)c(SC(C)C)s2)c(C(=O)O)c1-c1cccc(F)c1 [Compound B7, 4-(3-fluorophenyl)-1-(5-(isopropylthio)-4-(1,4-dioxaspiro[4.5]dec-7-en-8-yl)thiazol-2-yl)-3-methyl-1H-pyrazole-5-carboxylic acid] | 25 to 50 | – |
| Cc1nn(-c2nc(-c3ccc(Cl)c(C(=O)N4CCOCC4)c3)c(SC(C)C)s2)c(C(=O)O)c1-c1cccc(F)c1 [Compound B8, 1-(4-(4-chloro-3-(morpholine-4-carbonyl)phenyl)-5-(isopropylthio)thiazol-2-yl)-4-(3-fluorophenyl)-3-methyl-1H-pyrazole-5-carboxylic acid] | > 40 | – |
| Cc1cc(-c2cn(-c3nc(-c4ccc(Cl)c(Cl)c4)c(SC(C)C)s3)nc2C)cc(C)n1 [Compound B9, 4-(3,4-dichlorophenyl)-2-(4-(2,6-dimethylpyridin-4-yl)-3-methyl-1H-pyrazol-1-yl)-5-(isopropylthio)thiazole] | – | BJAB (BJAB (malignant human B-cell-line) cell proliferation, EC50): A, C, L |
| Cc1nn(-c2nc(-c3ccc(C(F)(F)F)cc3)c(SC(C)C)s2)c(C)c1-c1cccc(F)c1 [Compound B10, 2-(4-(3-fluorophenyl)-3,5-dimethyl-1H-pyrazol-1-yl)-5-(isopropylthio)-4-(4-(trifluoromethyl)phenyl)thiazole] | > 40 | – |
| Cc1nn(-c2nc(N3CCCCC3)c(SC(C)C)s2)c(C(=O)O)c1-c1cccc(F)c1 [Compound B11, 4-(3-fluorophenyl)-1-(5-(isopropylthio)-4-(piperidin-1-yl)thiazol-2-yl)-3-methyl-1H-pyrazole-5-carboxylic acid] | 10 to 25 | – |
| Cc1nn(-c2nc(N3CCC(C(F)(F)F)CC3)c(SC(C)C)s2)c(C(=O)O)c1-c1cccc(F)c1 [Compound B12, 4-(3-fluorophenyl)-1-(5-(isopropylthio)-4-(4-(trifluoromethyl)piperidin-1-yl)thiazol-2-yl)-3-methyl-1H-pyrazole-5-carboxylic acid] | < 1 | – |
| COc1nn(-c2nc(-c3ccc(C(F)(F)F)cc3)c(SC(C)C)s2)c(C(=O)O)c1-c1cccc(F)c1 [Compound B13, 4-(3-fluorophenyl)-1-(5-(isopropylthio)-4-(4-(trifluoromethyl)phenyl)thiazol-2-yl)-3-methoxy-1H-pyrazole-5-carboxylic acid] | 1 to 5 | – |
| Cc1nn(-c2nc(N3CCOCC3)c(SC(C)C)s2)c(C(=O)O)c1-c1cccc(F)c1 [Compound B14, 4-(3-fluorophenyl)-1-(5-(isopropylthio)-4-morpholinothiazol-2-yl)-3-methyl-1H-pyrazole-5-carboxylic acid] | > 40 | – |
| CC(C)Sc1sc(-n2nc(O)c(-c3cccc(F)c3)c2C(=O)O)nc1-c1ccc(C(F)(F)F)cc1 [Compound B15, 4-(3-fluorophenyl)-3-hydroxy-1-(5-(isopropylthio)-4-(4-(trifluoromethyl)phenyl)thiazol-2-yl)-1H-pyrazole-5-carboxylic acid] | > 20 | – |
| Cc1nn(-c2nc(-c3ccc(Cl)c(Cl)c3)n(CC(C)C)n2)c(C(=O)O)c1-c1cccc(F)c1 [Compound B16, 1-(5-(3,4-dichlorophenyl)-1-isobutyl-1H-1,2,4-triazol-3-yl)-4-(3-fluorophenyl)-3-methyl-1H-pyrazole-5-carboxylic acid] | > 20 | – |
| Cc1nn(-c2nc(-c3ccc(Cl)c(Cl)c3)nn2CC(C)C)c(C(=O)O)c1-c1cccc(F)c1 [Compound B17, 1-(3-(3,4-dichlorophenyl)-1-isobutyl-1H-1,2,4-triazol-5-yl)-4-(3-fluorophenyl)-3-methyl-1H-pyrazole-5-carboxylic acid] | > 20 | – |
| Cc1nn(-c2nc(N3CCC(F)(F)CC3)c(SC(C)C)s2)c(C(=O)O)c1-c1cccc(F)c1 [Compound B18, 1-(4-(4,4-difluoropiperidin-1-yl)-5-(isopropylthio)thiazol-2-yl)-4-(3-fluorophenyl)-3-methyl-1H-pyrazole-5-carboxylic acid] | 1 to 5 | – |
| COC(=O)c1c(-c2cccc(F)c2)c(C)nn1-c1nc(C2=CCC(C(F)(F)F)CC2)c(SC(C)C)s1 (centres unmarked) [Compound B20, methyl 4-(3-fluorophenyl)-1-(5-(isopropylthio)-4-(4-(trifluoromethyl)cyclohex-1-en-1-yl)thiazol-2-yl)-3-methyl-1H-pyrazole-5-carboxylate] | < 1 | – |
| Cc1nn(-c2nc(C3CCC(C(F)(F)F)CC3)cs2)c(C(=O)O)c1-c1cccc(F)c1 (centres unmarked) [Compound B21, 4-(3-fluorophenyl)-3-methyl-1-(4-(4-(trifluoromethyl)cyclohexyl)thiazol-2-yl)-1H-pyrazole-5-carboxylic acid] | > 20 | – |
| Cc1nn(-c2nc(-c3ccc(C(F)(F)F)cc3)c(CC(C)C)s2)c(C(=O)O)c1-c1cccc(F)c1 [Compound B22, 4-(3-fluorophenyl)-1-(5-isobutyl-4-(4-(trifluoromethyl)phenyl)thiazol-2-yl)-3-methyl-1H-pyrazole-5-carboxylic acid] | < 1 | – |
| Cc1nn(-c2nc(N3CCN(CC(F)(F)F)CC3)c(SC(C)C)s2)c(C(=O)O)c1-c1cccc(F)c1 [Compound B23, 4-(3-fluorophenyl)-1-(5-(isopropylthio)-4-(4-(2,2,2-trifluoroethyl)piperazin-1-yl)thiazol-2-yl)-3-methyl-1H-pyrazole-5-carboxylic acid] | 5 to 10 | – |
| Cc1nn(-c2nc(N3CCC(C#N)CC3)c(SC(C)C)s2)c(C(=O)O)c1-c1cccc(F)c1 [Compound B24, 1-(4-(4-cyanopiperidin-1-yl)-5-(isopropylthio)thiazol-2-yl)-4-(3-fluorophenyl)-3-methyl-1H-pyrazole-5-carboxylic acid] | 10 to 25 | – |
| Cc1nn(-c2nc(N3CCN(C4CC4)CC3)c(SC(C)C)s2)c(C(=O)O)c1-c1cccc(F)c1 [Compound B25, 1-(4-(4-cyclopropylpiperazin-1-yl)-5-(isopropylthio)thiazol-2-yl)-4-(3-fluorophenyl)-3-methyl-1H-pyrazole-5-carboxylic acid] | 5 to 10 | – |
